In experiment [1] the test system is protein synthesis of liver tissue. Briefly: In vivo-in vitro test: protein synthesis rate of liver tissue (14C amino acid incorporation in microsomal cell juice). On the set-up: species or system male rats (Wistar). The following applies: 4 weeks; for Δ % control rat group treated: versus treated (physiological sodium chloride s.c.) control group; for Δ % control rat group untreated: versus untreated control group; for Protein synthesis rates compared with the two control groups: male rats, daily s.c. How it is done: De-protecting reactions are carried out according to methods known per se in polypeptide chemistry. Peptides wherein Y represents OR are prepared, for example, starting from the C-terminal amino acid esterified by the appropriate alcohol. Peptides wherein Y represents OH can be prepared, for example, by hydrolysis of peptides wherein Y represents OR. Peptides wherein Y represents NH2, NHR or NR2 can be prepared by ammonolysis of the corresponding esters or starting from a C-terminal amino acid amidated by an appropriate amine. Hydrazido or substituted hydrazido derivatives according to the invention are prepared by condensation of the N-protected peptide or amino acid with a suitably substituted hydrazine, such as benzylcarbazate, t-butylcarbazate, adamantylcarbazate, phenylhydrazine or adamantylhydrazine, or reacting the N-protected peptide or amino acid hydrazide with a suitable alkylating agent, such as an alkyl chloride, or with a suitable acylating agent such as benzylchloroformate, t-butylchloroformate, di-t-butyldicarbonate or adamantylfluoroformate. […] The compounds according to the invention show an interesting growth promoting activity in animals determined both by the in vivo-in vitro test system on protein synthesis of liver tissue (as described by K. Kammerer and A. Dey-Hazra (1980) Vet. Med. Nachr. Nr. 2, 99-112), and by the dose-dependent increase in weight gain and feed efficiency after subcutaneous or oral administration.
The growth tests were carried out for periods of 4 weeks, using groups of 6 male rats (Wistar, Hagemann, Extertal) divided in subgroups of three animals managed in Markolon cages, good shaving as litter.
Water and feed (Altromin 1321 Standard diet containing 19% crude protein): ad libitum.
The peptides of the present invention were administered in solution s.c. daily at doses of 10, 50 and 100 ng/kg, using as diluent normal saline (starting from a stock solution with 100 ng/ml).
Homogenise 3 g liver in 9 ml TKM buffer-saccharose solution, cooled on ice, in a Potter homogeniser at 600 r.p.m. for 2 min.; centrifuge at 4° C. in an ultracentrifuge with 10,000 g for 20 min., decant the supernatant=microsomal cell juice.
After calculation of protein content in the microsomal cell juice by means of the biuret method, the protein concentration was adjusted with TKM buffer to 1 mg/ml. To that, a further dilution with bidistilled water to 0.25 mg protein per ml of the microsomal cell juice followed.
Subsequently portions of 0.15 l ml reaction medium and 0.05 ml (50 mcg) of pyruvate kinase solution, as well as 0.1 ml of ^14 C amino acid mixture (=1 μCi) were added. The volume of the incubation mixture was then 1 ml each.
After a 35 minute incubation at 37° C. in a water bath, protein precipitation was performed by adding 2 ml of trichloracetic acid (10%). The sediment was washed by several additions of trichloroacetic acid and subsequent centrifugation (3600 g/5 min) until the supernatant was free from radioactivity.
The residue was dissolved in 1.0 ml Lumasolve and left overnight at 37° C., until it was clear.
Measuring the preparation was done in a PRIAS liquid scintillation counter PL (1.0 ml+5 ml scintillation liquid).
A detailed method is described in the above cited Kammerer article.

The nature of experiment [2]: Growth test in pigs (body weight, feed consumption, feed efficiency). Type of experiment: in vivo, castrated male pigs (Hybrids). As to the method: The growth test was carried out for a period of 3 weeks, using groups of 7 castrated male pigs (Hybrids) divided in subgroups and managed in cages with flat decks. The pigs were fed during the whole experimental period with grower feed (Hoveler, normal type without feed additives), 1 kg per day. Water was given ad libitum. The weights were weekly recorded.

Setting [3] is: 50 ng/kg daily injection, 3 weeks.
[4] abbreviates: 50 ng/kg, 3 weeks, versus untreated group 1.

Consider two compounds from US4567162A, “Biologically active heptapeptides” (Farmitalia Carlo Erba, priority 1983, dated 1986).

Structures can show the parent of a compound that is named as a salt. Ends that are not written are not given here. Peptide text beside a SMILES is read from it.

For the compound `COC(=O)[C@H](CCSC)NC(=O)[C@H](Cc1c[nH]c2ccccc12)NC(=O)CNC(=O)[C@H](CC(C)C)NC(=O)[C@@H]1CCCN1C(=O)[C@@H]1CCCN1C(=O)[C@@H](N)C(C)C` [Ex. 2 (TK7D), HCl.H-Val-Pro-Pro-Leu-Gly-Trp-Met-OMe] (H-VPPLGWM-OMe), the figures for the “Δ % control rat group treated” value in experiment [1] (10 ng/kg daily s.c.), in experiment [1] (50 ng/kg daily s.c.) and in experiment [1] (100 ng/kg daily s.c.) were “+29.4%”, “+38.2%” and “+63.2%”, respectively. Further, the entries for the “Δ % control rat group untreated” value in experiment [1] (10 ng/kg daily s.c.), in experiment [1] (50 ng/kg daily s.c.) and in experiment [1] (100 ng/kg daily s.c.) were “+11.9%”, “+19.4%” and “+41.0%”, respectively. Also, the “Protein synthesis rates compared with the two control groups” value in experiment [1] is reported as “significantly different from the two control groups”.
Take “VPPLGWM [Ex. 1 (TK7), H-Val-Pro-Pro-Leu-Gly-Trp-Met-OH.HCl]”: in experiment [1] (10 ng/kg daily s.c.), the “Δ % control rat group treated” value is “+36.1%” and the “Δ % control rat group untreated” value is “+17.7%”. Moreover, in experiment [1] (50 ng/kg daily s.c.), the “Δ % control rat group treated” value is “+46.0%” and the “Δ % control rat group untreated” value is given as “+26.2%”. In experiment [1] (100 ng/kg daily s.c.), the “Δ % control rat group treated” value is listed as “+56.5%” and the “Δ % control rat group untreated” value was “+35.3%”. In addition, the “Protein synthesis rates compared with the two control groups” value in experiment [1] is “significantly different from the two control groups”. Also, in experiment [2] (50 ng/kg daily injection), the “Weight after 1 week” value came out at 15.2 kg, the “Weight after 2 weeks” value is given as 17.8 kg and the “Weight after 3 weeks” value is on record as 20.7 kg. Further, in experiment [2] (setting [3]), the “Weight gain” value is given as 9.0 kg and the “Weight gain in %” value is listed as 76.9%. In experiment [2] (50 ng/kg daily injection, baseline), this compound returned an Initial weight of 11.7 kg. Also, the “Feed efficiency (kg feed/kg weight gain)” value in experiment [2] (50 ng/kg, 3 weeks) was 2.33 kg feed/kg weight gain. In experiment [2] (50 ng/kg, 3 weeks, feed 1 kg per day), the “Consumption (feed)” value is given as 21 kg. Besides, in experiment [2] (setting [4]), the “Feed efficiency Δ % to control group” value is on record as -24.6% and the “Weight gain Δ % to control group” value is recorded as “+32.4%”. The “Weight gain (in words)” value in experiment [2] (daily injection) was “clear increase in weight gain”.
